The values below come from US20240336610A1, “3CL PROTEASE SMALL-MOLECULE INHIBITOR FOR TREATING OR PREVENTING CORONAVIRUS INFECTION, AND USE THEREOF” (THE GLOBAL HEALTH DRUG DISCOVERY INSTITUTE, priority 2021, published 2024).

The target of the first data set is SARS-CoV-2 main protease (3CLpro) (Severe acute respiratory syndrome coronavirus 2 (2019-nCoV) (SARS-CoV-2), UniProt P0DTD1). The data set can be described thus: Enzyme activity test. In kind it is biochemical. The following applies: 200 nM recombinant SARS-CoV-2 main protease, 15 μM fluorescent substrate, pH 7.3.
Consider `CC(=O)N[C@H](C(=O)N1C[C@H]2[C@@H]([C@H]1C(=O)NC(C#N)c1cncc(-c3cn[nH]c3)c1)C2(C)C)C(C)(C)C` (stereo partly drawn) [GDI-032, (1R,2S,5S)-N-((5-(1H-pyrazol-4-yl)pyridin-3-yl)(cyano)methyl)-3-((S)-2-acetylamino-3,3-dimethylbutanoyl)-6,6-dimethyl-3-azabi cyclo[3.1.0]hexane-2-carboxamide], for which the IC50 is 28 nM.
As to `CC(=O)N[C@H](C(=O)N1C[C@H]2[C@@H]([C@H]1C(=O)NC(C#N)c1cncc(Br)c1C)C2(C)C)C(C)(C)C` (stereo partly drawn) [GDI-009, (1R,2S,5S)-3-((S)-2-acetamido-3,3-dimethylbutyryl)-N-((5-bromo-4-methylpyridin-3-yl)(cyano)methyl)-6,6-dimethyl-3-azabicycl o[3.1.0]hexane-2-carboxamide], the 50% inhibitory concentration (IC50) stood at 53 nM.
As for `CN(C)c1ccc(S(=O)(=O)N[C@H](C(=O)N2C[C@H]3[C@@H]([C@H]2C(=O)NC(C#N)c2cncc(Br)c2)C3(C)C)C(C)(C)C)cc1` (stereo partly drawn) [GDI-026, (1R,2S,5S)-N-((5-bromopyridin-3-yl) (cyano)methyl)-3-((S)-2-((4-(dimethylamino)phenyl)sulfonamido)-3,3-dimethylbutanoyl)-6,6-d imethyl-3-azabicyclo[3.1.0]hexane-2-carboxamide], the IC50 came out at 17 nM.
With `CC(C)(C)[C@H](NS(=O)(=O)C(F)(F)F)C(=O)N1C[C@H]2[C@@H]([C@H]1C(=O)NC(C#N)c1cncc3ccccc13)C2(C)C` (stereo partly drawn) [GDI-029, (1R,2S,5S)-N-(cyano(isoquinolin-4-yl)methyl)-3-((S)-3,3-dimethyl-2-((trifluoromethyl)sulfonamido)butanoyl)-6,6-dimethyl-3-azabic yclo[3.1.0]hexane-2-carboxamide], the concentration for half-maximal inhibition (IC50) stood at 23 nM.
The same measure, in the same setting: the figure for `CC(C)(C)[C@H](NC(=O)C(F)(F)F)C(=O)N1C[C@H]2[C@@H]([C@H]1C(=O)NC(C#N)c1cncc(C(F)(F)F)c1)C2(C)C` (stereo partly drawn) [GDI-012, (1R,2S,5S)-N-(cyano (5-(trifluoromethyl)pyridin-3-yl)methyl)-3-((S)-3,3-dimethyl-2-(2,2,2-trifluoroacetylamino)butyryl)-6,6-dimethyl-3-azabicyclo[3.1.0]hexane-2-carboxamide] is 24 nM; for `Cc1ccc(S(=O)(=O)N[C@H](C(=O)N2C[C@H]3[C@@H]([C@H]2C(=O)NC(C#N)c2cncc4ccccc24)C3(C)C)C(C)(C)C)cc1` (stereo partly drawn) [GDI-023, (1R,2S,5S)-N-(cyano(isoquinolin-4-yl)methyl)-3-((S)-3,3-dimethyl-2-((4-methylphenyl)sulfonamido)butanoyl)-6,6-dimethyl-3-azabic yclo[3.1.0]hexane-2-carboxamide] it is 15 nM.
Turning to `CC1(C)[C@@H]2[C@@H](C(=O)NC(C#N)c3cncc(Br)c3)N(C(=O)OCc3ccccc3Cl)C[C@@H]21` (stereo partly drawn) [GDI-013, 2-chlorobenzyl((1R,2S,5S)-2-((5-bromopyridin-3-yl)(cyano)methyl)carbamoyl)-6,6-dimethyl-3-azabicyclo[3.1.0]hexane-3-carb oxylate], the IC50 stood at 340 nM.
Take `CC(=O)N[C@H](C(=O)N1C[C@H]2[C@@H]([C@H]1C(=O)NC(C#N)c1cncc(-n3cccn3)c1)C2(C)C)C(C)(C)C` (stereo partly drawn) [GDI-028, (1R,2S,5S)-N-((5-(1H-pyrazol-1-yl)pyridin-3-yl)(cyano)methyl)-3-((S)-2-acetylamino-3,3-dimethylbutanoyl)-6,6-dimethyl-3-azabi cyclo[3.1.0]hexane-2-carboxamide]: the IC50 was 2.4 nM.
The same measure, in the same setting: the figure for `CN(C)c1ccc(S(=O)(=O)N[C@H](C(=O)N2C[C@H]3[C@@H]([C@H]2C(=O)NC(C#N)c2cncc(C(F)(F)F)c2)C3(C)C)C(C)(C)C)cc1` (stereo partly drawn) [GDI-019, (1R,2S,5S)-N-(cyano(5-(trifluoromethyl)pyridin-3-yl)methyl)-3-((S)-2-((4-(dimethylamino)phenyl)sulfonamido)-3,3-dimethylbutanoyl) -6,6-dimethyl-3-azabicyclo[3.1.0]hexane-2-carboxamide] is 22 nM; for `CC(=O)N[C@H](C(=O)N1C[C@H]2[C@@H]([C@H]1C(=O)NC(C#N)c1cncc3c(F)cccc13)C2(C)C)C(C)(C)C` (stereo partly drawn) [GDI-033, (1R,2S,5S)-3-((S)-2-acetamido-3,3-dimethylbutyryl)-N-(cyano(8-fluoroisoquinolin-4-yl)methyl)-6,6-dimethyl-3-azabicyclo[3.1.0]h exane-2-carboxamide] it is 56 nM; for `CC(=O)N[C@H](C(=O)N1C[C@H]2[C@@H]([C@H]1C(=O)NC(C#N)c1c[nH]c3ccccc13)C2(C)C)C(C)(C)C` (stereo partly drawn) [GDI-024, (1R,2S,5S)-3-((S)-2-acetamido-3,3-dimethylbutyryl)-N-(cyano(1H-indol-3-yl)methyl)-6,6-dimethyl-3-azabicyclo[3.1.0]hexane-2-c arboxamide] it is 66300 nM.
As to `Cc1ccc(S(=O)(=O)N[C@H](C(=O)N2C[C@H]3[C@@H]([C@H]2C(=O)NC(C#N)c2cncc(Br)c2)C3(C)C)C(C)(C)C)cc1` (stereo partly drawn) [GDI-021, (1R,2S,5S)-N-((5-bromopyridin-3-yl) (cyano)methyl)-3-((S)-3,3-dimethyl-2-((4-methylphenyl)sulfonamido)butanoyl)-6,6-dimethyl-3-azabicyclo[3.1.0]hexane-2-carboxamide], the half-inhibitory concentration (IC50) stood at 19 nM.
For `CC(=O)N[C@H](C(=O)N1C[C@H]2[C@@H]([C@H]1C(=O)NC(C#N)c1cncc(-c3cnn(C)c3)c1)C2(C)C)C(C)(C)C` (stereo partly drawn) [GDI-030, (1R,2S,5S)-3-((S)-2-acetamido-3,3-dimethylbutyryl)-N-(cyano(5-(1-methyl-1H-pyrazol-4-yl)pyridin-3-yl)methyl)-6,6-dimethyl-3-azabicyclo[3.1.0]hexane-2-carboxamide], the IC50 is 18 nM.
`CN(C)c1ccc(S(=O)(=O)N[C@H](C(=O)N2C[C@H]3[C@@H]([C@H]2C(=O)NC(C#N)c2cncc4ccccc24)C3(C)C)C(C)(C)C)cc1` (stereo partly drawn) [GDI-027, (1R,2S,5S)-N-(cyano(isoquinolin-4-yl)methyl)-3-((S)-2-((4-(dimethylamino)phenyl)sulfonamido)-3,3-dimethylbutyryl)-6,6-dimethyl-3-azabicyclo[3.1.0]hexane-2-carboxamide]: the 50% inhibitory concentration (IC50) worked out at 7.6 nM.
`COC(=O)c1cncc(C(C#N)NC(=O)[C@@H]2[C@@H]3[C@H](CN2C(=O)[C@@H](NC(C)=O)C(C)(C)C)C3(C)C)c1` (stereo in doubt) [GDI-034, 5-((1R,2S,5S)-3-((S)-2-acetamido-3,3-dimethylbutyryl)-6,6-dimethyl-3-azabicyclo[3.1.0]hexane-2-carboxamido)(cyano)methyl)methyl nicotinate]: the IC50 was 62 nM.
On the same count and under the same terms, the figure for `CC(=O)N[C@H](C(=O)N1C[C@H]2[C@@H]([C@H]1C(=O)NC(C#N)c1cnc3[nH]ccc3c1)C2(C)C)C(C)(C)C` (stereo partly drawn) [GDI-020, (1R,2S,5S)-3-((S)-2-acetamido-3,3-dimethylbutyryl)-N(cyano(1H-pyrrole[2,3-b]pyridin-5-yl)methyl)-6,6-dimethyl-3-azabicyclo[3. 1.0]hexane-2-carboxamide] is 19 nM; for `CC(=O)N[C@H](C(=O)N1C[C@H]2[C@@H]([C@H]1C(=O)NC(C#N)c1cncc(-c3ccn[nH]3)c1)C2(C)C)C(C)(C)C` (stereo partly drawn) [GDI-035, (1R,2S,5S)-N-((5-(1H-pyrazol-5-yl)pyridin-3-yl)(cyano)methyl)-3-((S)-2-acetylamino-3,3-dimethylbutanoyl)-6,6-dimethyl-3-azabi cyclo[3.1.0]hexane-2-carboxamide] it is 17 nM; for `CC(=O)N[C@H](C(=O)N1C[C@H]2[C@@H]([C@H]1C(=O)NC(C#N)c1cncc(-c3nc(C)no3)c1)C2(C)C)C(C)(C)C` (stereo partly drawn) [GDI-015, (1R,2S,5S)-3-((S)-2-acetamido-3,3-dimethylbutyryl)-N-(cyano(5-(3-methyl-1,2,4-oxadiazol-5-yl)pyridin-3-yl)methyl)-6,6-dimethy 1-3-azabicyclo[3.1.0]hexane-2-carboxamide] it is 120 nM.
Still for that read-out and setting: the figure for `CC(=O)N[C@H](C(=O)N1C[C@H]2[C@@H]([C@H]1C(=O)NC(C#N)c1cncc(-c3nc(C(C)C)no3)c1)C2(C)C)C(C)(C)C` (stereo partly drawn) [GDI-031, (1R,2S,5S)-3-((S)-2-acetamido-3,3-dimethylbutyryl)-N-(cyano(5-(3-isopropyl-1,2,4-oxadiazol-5-yl)pyridin-3-yl)methyl)-6,6-dimet hyl-3-azabicyclo[3.1.0]hexane-2-carboxamide] is 100 nM.
Same read-out and setting: the figure for `CNC(=O)c1cncc(C(C#N)NC(=O)[C@@H]2[C@@H]3[C@H](CN2C(=O)[C@@H](NC(C)=O)C(C)(C)C)C3(C)C)c1` (stereo partly drawn) [GDI-018, (1R,2S,5S)-3-((S)-2-acetamido-3,3-dimethylbutyryl)-N(cyano(5-(methylcarbamoyl)pyridin-3-yl)methyl)-6,6-dimethyl-3-azabicycl o[3.1.0]hexane-2-carboxamide] is 110 nM; for `CC(C)(C)[C@H](NS(=O)(=O)C(F)(F)F)C(=O)N1C[C@H]2[C@@H]([C@H]1C(=O)NC(C#N)c1cncc(Br)c1)C2(C)C` (stereo partly drawn) [GDI-025, (1R,2S,5S)-N-((5-bromopyridin-3-yl) (cyano)methyl)-3-((S)-3,3-dimethyl-2-((trifluoromethyl)sulfonamido)butanoyl)-6,6-dimethyl-3-azabicyclo[3.1.0]hexane-2-carboxamide] it is 19 nM.

Tested on in the next data set: not listed separately
The data set can be described thus: Oral pharmacokinetics in rats. In kind it is in vivo. The following applies: rat, blood, male SD rats, 15 mg/kg. Here is the method: Test Example 2: Measurement of Oral Pharmacokinetics in Rats
Male SD rats were orally administered with 15 mg/kg of the compound in the examples of the present disclosure, and blood samples were collected at 0.083, 0.25, 0.5, 1, 2, 4, and 8 hours respectively. After the samples were treated with anticoagulant EDTA-K2 and acetonitrile and centrifuged, a drug concentration analysis was conducted using LC/MS/MS.
Compound `CC(C)(C)[C@H](NC(=O)C(F)(F)F)C(=O)N1C[C@H]2[C@@H]([C@H]1C(=O)NC(C#N)c1cncc(C(F)(F)F)c1)C2(C)C` (stereo partly drawn) [GDI-012, (1R,2S,5S)-N-(cyano (5-(trifluoromethyl)pyridin-3-yl)methyl)-3-((S)-3,3-dimethyl-2-(2,2,2-trifluoroacetylamino)butyryl)-6,6-dimethyl-3-azabicyclo[3.1.0]hexane-2-carboxamide] had an AUC(0-inf) of 7140 ng·h/mL, an AUC(0-t) of 7080 ng·h/mL, a Cmax of 2120 ng/mL and a half-life of 1.92 h.
